Experiment in all cases: MTT assay
What all share (type): cell-based, human
(Tetrazolium assays rely on reduction of a dye to a coloured formazan, in cell work by metabolically active cells.)

For one series, the system named is LNCaP. To be noted: for IC50: LNCaP. On the procedure:
(§1) Human cancer cell lines (MDA-MB-231, LNCaP, Caco-2) and a human healthy cell line (HEK-293) were obtained from the European Collection of Cell Cultures. The cells were incubated in a humidified incubator (37 °C, 5% CO2) and cultured under standard conditions in Dulbecco’s modified Eagle medium (DMEM), 10% heat-inactivated fetal bovine serum, 100 U mL^–1 penicillin, 100 U mL^–1 streptomycin, and 4 mM L-glutamine. […] A cell culture medium was used to make further dilutions, while keeping the equivalent of DMF below 0.5% of the total volume.[94] […]
(§2) 7. Cell Viability Inhibition Assay
(§3) MDA-MB-231, LNCaP, Caco-2 and HEK-293 cells (5x10^3 per well) seeded in 96-well plates to assess cell viability by the 3-[4,5-dimethylthiazol-2-yl]-2,5-diphenyltetrazolium bromide (MTT) assay for 24 h at 37°C. Then cells were treated with compound 3 at different concentrations (3-100 µM) at 100μl/well. In parallel, the traditional anticancer agent cisplatin and etoposid was used as positive controls under identical conditions. After 24, 48 and 72 h incubation, 5 mg/ml MTT solution (20 μl/well) was added and cultured for another 4 h. Then, the supernatant was discarded and dimethyl sulfoxide was added (100 μl/well). The absorbance (A) was measured spectrophotometrically at 540 nm by a Microplate Reader (SpectraMax i3x).
(§4) A graph was plotted between the concentrations of the extract versus the percent viability. The […]
(§5) calculated from graph. All assays were performed in three replicates per concentration level. 11 […]

A further series relates to HEK-293. On the procedure:
as §1, §2, §3, §4, §5

The next series has as its system MDA-MB-231. The procedure: as §1, §2, §3, §4, §5
The next series deals with Caco-2. To be noted: for IC50: Homo sapiens. On the procedure: as §1, §2
MDA-MB-231, LNCaP, Caco-2 and HEK-293 cells (5x10^3 per well) seeded in 96-well plates to assess cell viability by the 3-[4,5-dimethylthiazol-2-yl]-2,5-diphenyltetrazolium bromide (MTT) assay for 24 h at 37°C. Then cells were treated with compound 3 at different concentrations (3-100 µM) at 100μl/well. […]
and etoposid was used as positive controls under identical conditions. After 24, 48 and 72 h incubation, 5 mg/ml MTT solution (20 μl/well) was added and cultured for another 4 h. Then, the supernatant was discarded and dimethyl sulfoxide was added (100 μl/well). The absorbance (A) was measured spectrophotometrically at 540 nm by a Microplate Reader (SpectraMax i3x).
as §4, §5

[1] abbreviates: 48 h, SI = IC50 on normal cells/IC50 on cancer cells.

A word on the IC50: it is the concentration at which inhibition is half-maximal. Low readings indicate inhibition by little substance, high ones a need for much substance. `COc1cc([C@@H]2c3cc4c(cc3[C@@H](O[C@@H]3O[C@@H]5CO[C@@H](C)O[C@H]5[C@H](O)[C@H]3O)[C@H]3COC(=O)[C@H]23)OCO4)cc(OC)c1O` [etoposide]: the SI HEK-293/LNCap in the series with LNCaP (setting [1]) is 0.95. The IC50 in the series with LNCaP (Homo sapiens, 24 h) stood at 81.47 ± 0.62 µM; in the series on LNCaP (Homo sapiens, 48 h), 62.02 ± 0.61 µM; with LNCaP (Homo sapiens, 72 h), 20.79 ± 0.08 µM; in the series with HEK-293 (Homo sapiens, HEK293, HEK-293, 24 h), 110.3 ± 0.16 µM; in the series with HEK-293 (Homo sapiens, HEK293, HEK-293, 48 h), 59.2 ± 0.32 µM; in the series on HEK-293 (Homo sapiens, HEK293, HEK-293, 72 h), 51.62 ± 0.48 µM. For the same compound, the IC50 in the series with MDA-MB-231 (Homo sapiens, MDA-MB-231, 24 h) came out at 85.4 ± 0.74 µM; in the series on MDA-MB-231 (Homo sapiens, MDA-MB-231, 48 h), 63.17 ± 0.05 µM; in the series on MDA-MB-231 (Homo sapiens, MDA-MB-231, 72 h), 24.3 ± 0.44 µM; in the series on Caco-2 (Caco-2, 24 h) it was 76.27 ± 0.34 µM; in the series with Caco-2 (Caco-2, 48 h), 53.81 ± 0.17 µM; in the series with Caco-2 (Caco-2, 72 h), 17.5 ± 0.26 µM. The compound further had an SI HEK-293/MDA-MB-231 with MDA-MB-231 (setting [1]) of 0.94. In addition, the SI HEK-293/Caco-2 with Caco-2 (setting [1]) amounted to 1.1.

On to `N.N.[Cl][Pt][Cl]` [cisplatin], for which the IC50 in the series on LNCaP (24 h) stood at 26.1 ± 0.58 µM; in the series with LNCaP (48 h), 25.9 ± 0.48 µM; in the series with LNCaP (72 h) it was 10.3 ± 0.28 µM; with HEK-293 (HEK-293, 24 h), 18.62 ± 0.09 µM; in the series with HEK-293 (HEK-293, 48 h) it was 4.7 ± 0.01 µM; in the series on HEK-293 (HEK-293, 72 h) it was 2.43 ± 0.01 µM. Moreover, the IC50 with MDA-MB-231 (MDA-MB-231, 24 h) came out at 8.43 ± 0.01 µM; in the series on MDA-MB-231 (MDA-MB-231, 48 h) it was 2.19 ± 0.02 µM; with MDA-MB-231 (MDA-MB-231, 72 h) it was 1.78 ± 0.01 µM.

The values above are taken from paper PMC10483525, “Synthesis, Structural Investigations, DNA/BSA Interactions, Molecular Docking Studies, and Anticancer Activity of a New 1,4-Disubstituted 1,2,3-Triazole Derivative” (ACS Omega, 2023).
